Results published in patent publication US8481519B2 (LTS Lohmann Therapie-Systeme AG, priority 2005, dated 2013).

What was measured:
[1] = target: T1, human androgen receptor (hAR) (Homo sapiens, UniProt P10275); assay: androgen receptor-dependent MMTV-luc reporter gene assay (luciferase assay) in transfected CV1 cells; format: cell-based; details: for antiandrogenic effect of atraric acid derivatives and structurally similar compounds: FIGS. 6 and 7, concentration not given (FIG. 6: 10^−6 M); for inactivation of androgen receptor-mediated transactivation: 1 μM concentration; for inhibition of androgen receptor-mediated transactivation: 10 μM concentration, FIG. 7
T1 construct: expressed in transfected cells; host or cells: CV1 monkey kidney cells, which lack endogenous androgen receptor
T1 sequence (P10275 1-920): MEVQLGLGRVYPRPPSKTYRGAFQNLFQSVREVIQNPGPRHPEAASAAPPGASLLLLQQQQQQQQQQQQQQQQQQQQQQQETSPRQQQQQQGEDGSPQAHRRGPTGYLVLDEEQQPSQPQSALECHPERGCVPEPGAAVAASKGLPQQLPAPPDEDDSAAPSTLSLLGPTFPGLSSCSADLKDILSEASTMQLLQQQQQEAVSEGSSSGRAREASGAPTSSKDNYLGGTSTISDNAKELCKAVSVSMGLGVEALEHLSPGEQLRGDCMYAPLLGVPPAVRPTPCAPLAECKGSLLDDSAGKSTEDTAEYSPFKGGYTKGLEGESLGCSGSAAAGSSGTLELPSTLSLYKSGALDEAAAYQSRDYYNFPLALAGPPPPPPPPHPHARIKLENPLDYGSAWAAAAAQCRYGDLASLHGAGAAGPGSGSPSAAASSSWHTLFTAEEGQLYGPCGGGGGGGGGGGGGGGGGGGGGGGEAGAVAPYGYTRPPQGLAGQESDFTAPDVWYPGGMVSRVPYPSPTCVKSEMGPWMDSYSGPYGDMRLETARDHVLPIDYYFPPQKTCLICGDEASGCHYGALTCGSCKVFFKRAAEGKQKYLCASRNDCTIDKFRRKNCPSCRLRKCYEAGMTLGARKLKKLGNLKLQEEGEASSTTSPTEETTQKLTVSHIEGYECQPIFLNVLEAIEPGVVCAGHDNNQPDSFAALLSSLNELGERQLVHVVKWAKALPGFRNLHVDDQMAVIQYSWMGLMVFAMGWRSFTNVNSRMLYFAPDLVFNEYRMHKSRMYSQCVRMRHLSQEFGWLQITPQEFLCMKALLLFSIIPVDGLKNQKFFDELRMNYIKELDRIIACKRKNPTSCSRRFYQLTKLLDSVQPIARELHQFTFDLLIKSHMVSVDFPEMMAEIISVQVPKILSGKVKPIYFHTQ
Excerpt: The potentially antiandrogenic efficacy of the extracts obtained was examined with the androgen receptor-dependent MMTV-luc reporter gene assay, in the following designated as luciferase assay.
In that assay, the enzyme luciferase serves as a reporter gene. Luciferase is an oxidoreductase from the North American firefly Photinus pyralis, which […] the substrate luciferin in the presence of aerial oxygen, ATP and Mg^2+ ions, to oxyluciferin. The energy emitted in the process is emitted as light.
The reporter gene luciferase is located on the plasmid pMMTV-luc (MMTV=Mouse mammary tumour virus), on which is also located the androgen-responsive element (ARE). The plasmid pMMTV-luc is transfected, together with the androgen receptor expression vector, into fibroblasts of the monkey kidney. If an androgen is added thereto, this androgen will bind, in a complex with the androgen receptor, to the androgen-responsive element. This process then initiates the transcription of the following gene, namely that of the luciferase reporter gene. The amount of the expressed luciferase is directly proportional to the amount of light released when adding luciferin, and the amount of light can be quantified by measuring the emission at λ=562 nm. If apart from the androgen there is also an antiandrogenic substance or an antiandrogenic extract, the transactivation of the luciferase reporter gene by the androgen-responsive element is inhibited and later, when the substrate is added, a correspondingly smaller amount of light energy is released.
The extracts were then examined at two concentrations (300 μg/ml and 600 μg/ml) for their antiandrogenic bioactivity using the luciferase assay.
Monkey kidney cells, line CV1, lacking endogenous androgen receptor, were cultured in Dulbecco's modified Eagle's medium (DMEM), supplemented with 10% (v/v) fetal calf serum, penicillin (100 IU/ml) and streptomycin (100 IU/ml), at 37° C. and 5% CO2.
For the transfection experiments, the cells were seeded onto 6-well cell culture plates (Nunc, Roskilde, Denmark) with a density of 1.2×10^5 cells per well, and grown in DMEM medium supplemented with 10% (v/v) dextran-coated activated charcoal stripped serum. Six hours after seeding, the cells were transfected by using the Ca3(PO4)2 method. The human androgen receptor (hAR) expression vector (0.2 μg) was cotransfected with 1 μg of the reporter plasmid MMTV-luc and 0.2 μg of the cytomegalovirus (CMV)-driven β-galactosidase expression virus, as internal control for transfection efficiency. After 14 hours, the medium was replaced either without (white bars in FIGS. 1 to 3) or with the addition of methyltrienolone (R1881, 3×10^−10 M final concentration; black bars in FIGS. 1 to 3) together with the indicated extracts (FIG. 1), fractions of the methylene chloride extract (FIG. 2) or individual isolated compounds (FIG. 3). After an additional 48 hours, cells were harvested and assayed for luciferase and β-galactosidase activity.
Luciferase activity was determined by injecting luciferin and measuring light emission at 562 nm and expressed as relative light units (RLU) by using the values […] β-galactosidase activity for normalisation of the luciferase activity. All transfection assays shown were performed in duplicate and were repeated at least twice.
For determining antiandrogenic activity in the various extracts from the bark of P. africana, the extracts were used at a concentration of 300 μg/ml.
For determining the antiandrogenic activity in the fractions of the selective methylene chloride extracts, 2 μl of the respective fraction was used, corresponding to a final concentration of 30 μg/ml. Fractions 6 to F10 were additionally tested with 4 μl, corresponding to 60 μg/ml final concentration.

[2] = system: human prostate carcinoma cells (cell line LNCaP); assay: LNCaP cell growth assay; format: cell-based; details: FIG. 4; for growth of LNCaP cells: atraric acid 10 μM, OH—F 0.1 μM
Experimental: The growth of prostate cells and prostate cancer cells is originally dependent on androgens.
Human prostate carcinoma cells (cell line LNCaP) were cultured in RPMI-1640 medium that was supplemented with 10% (v/v) fetal calf serum, penicillin (100 IU/ml) and streptomycin (100 IU/ml), 2 mM glutamine and 1 mM sodium pyruvate.
For the cell growth assays, LNCaP cells were seeded onto a 24-well cell culture plate at a density of 5×10^3 cells per well and cultured in RPMI-1640 medium containing 5% fetal calf serum. […] Every second day the medium was replaced with fresh medium together with freshly added compounds. The cells were trypsinized and counted using a counting cell chamber on the indicated days.

human ERβ = target: T2, human ERβ (Homo sapiens, UniProt Q92731); assay: p2ERE-TATA-luc reporter gene assay in CV1 cells transfected with ERβ; format: cell-based; details: FIG. 8
T2 construct: expressed in transfected cells; host or cells: CV1 cells
Experimental: (§1) After seven days, the cells were seeded in 6-well plates (Nunc, Roskilde, Denmark) at a density of 1.5×10^5 cells per well. After 24 hours, the cells were transfected according to the calcium phosphate method with 2 μg of the reporter gene-encoding expression plasmid, 0.2 μg of the ERα-encoding or ERβ-encoding expression plasmid and, for reasons of normalisation, 0.2 μg of the cytomegalovirus-derived β-galactosidase. […] After 48 hours, the cells were harvested and assayed for luciferase and β-galactosidase activity. All transfection assays were performed in duplicate and were repeated at least twice.

human ERα = target: T3, human ERα (Homo sapiens, UniProt P03372); assay: p2ERE-TATA-luc reporter gene assay in CV1 cells transfected with ERα; format: cell-based; details: FIG. 9
T3 construct: expressed in transfected cells; host or cells: CV1 cells
Experimental: as §1

[3] = system: pathologically altered androgen receptor; details: background, prior work; cited from earlier work
[4] = no estradiol present, 10 μM or 100 μM

T3 sequence (P03372 whole entry): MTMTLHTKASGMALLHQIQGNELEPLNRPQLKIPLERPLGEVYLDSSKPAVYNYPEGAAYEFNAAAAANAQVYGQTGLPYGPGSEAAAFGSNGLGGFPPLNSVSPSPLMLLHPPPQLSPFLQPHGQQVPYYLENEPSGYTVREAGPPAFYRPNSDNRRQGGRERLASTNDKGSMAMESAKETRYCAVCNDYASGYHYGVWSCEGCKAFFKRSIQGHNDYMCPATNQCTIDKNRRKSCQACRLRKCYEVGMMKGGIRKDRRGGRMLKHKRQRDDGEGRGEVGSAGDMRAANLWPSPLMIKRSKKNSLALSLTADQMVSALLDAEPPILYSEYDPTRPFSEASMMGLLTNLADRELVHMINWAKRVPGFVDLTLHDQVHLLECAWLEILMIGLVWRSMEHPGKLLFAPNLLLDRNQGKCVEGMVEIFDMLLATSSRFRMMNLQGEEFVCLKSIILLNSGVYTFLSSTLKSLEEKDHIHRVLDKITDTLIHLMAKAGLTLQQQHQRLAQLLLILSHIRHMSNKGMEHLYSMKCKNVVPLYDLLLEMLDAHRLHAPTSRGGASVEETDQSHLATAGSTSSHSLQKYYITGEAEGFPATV
T2 sequence (Q92731 whole entry): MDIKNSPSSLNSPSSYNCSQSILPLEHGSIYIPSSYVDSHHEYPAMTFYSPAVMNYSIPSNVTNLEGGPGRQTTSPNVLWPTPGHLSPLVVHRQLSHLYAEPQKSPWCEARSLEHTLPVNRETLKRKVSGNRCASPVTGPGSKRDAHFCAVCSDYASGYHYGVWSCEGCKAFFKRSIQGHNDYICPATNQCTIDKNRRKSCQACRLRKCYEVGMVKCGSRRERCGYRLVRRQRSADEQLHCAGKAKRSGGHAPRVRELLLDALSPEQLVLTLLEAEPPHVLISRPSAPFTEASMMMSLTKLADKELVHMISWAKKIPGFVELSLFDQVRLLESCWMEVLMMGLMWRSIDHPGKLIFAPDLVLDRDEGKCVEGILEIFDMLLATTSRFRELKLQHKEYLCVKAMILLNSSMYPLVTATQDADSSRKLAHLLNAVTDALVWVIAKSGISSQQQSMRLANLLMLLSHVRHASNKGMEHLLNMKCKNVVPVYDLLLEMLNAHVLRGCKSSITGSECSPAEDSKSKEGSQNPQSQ

Cc1cc(O)c(C)c(O)c1C(=O)OCCNS(=O)(=O)c1ccccc1 [A4, 2-[(phenylsulfonyl)amino]ethyl-2,4-dihydroxy-3,6-dimethylbenzoate]
antiandrogenic effect of atraric acid derivatives and structurally similar compounds [1]: no antiandrogenic effect

COC(=O)c1c(C)cc(O)c(C)c1O [atraric acid, methyl-2,4-dihydroxy-3,6-dimethylbenzoate]
growth of LNCaP cells versus untreated cells ([2]; 10 μM, 8th day of treatment): clearly slower | growth of LNCaP cells [2]: reduced growth | estrogen-responsive expression of the reporter gene (ERβ agonism) (human ERβ; [4]): activated in a dose-dependent manner | hormone-mediated transactivation of ERβ (human ERβ; with estradiol): not affected | estrogen-responsive expression of the reporter gene (ERα agonism) (human ERα; [4]): activated in a dose-dependent manner | hormone-mediated transactivation of ERα (human ERα; with estradiol): not affected

COC(=O)c1c(O)c(C)cc(C)c1O [R5, methyl-2,6-dihydroxy-3,5-dimethylbenzoate]
antiandrogenic effect of atraric acid derivatives and structurally similar compounds [1]: loss of antiandrogenic activity

Cc1cc(C(=O)OC(C)C)c(O)c(C)c1O [A6, isopropyl-2,4-dihydroxy-3,5-dimethylbenzoate]
inactivation of androgen receptor-mediated transactivation [1]: still able to inactivate | inhibition of androgen receptor-mediated transactivation [1]: nearly completely inhibiting

CC(=O)[C@@]1(O)CC[C@H]2[C@@H]3C=C(Cl)C4=CC(=O)[C@@H]5C[C@@H]5[C@]4(C)[C@H]3CC[C@@]21C [cyproterone]
inclusions in cells expressing a pathologically altered androgen receptor [3]: only a small number of inclusions

CC(C)(O)C(=O)Nc1ccc([N+](=O)[O-])c(C(F)(F)F)c1 [OH—F, hydroxyflutamide, reference compound]
growth of LNCaP cells [2]: did not lead to any reduction in growth

C[C@]12CC[C@H]3[C@@H](CCC4=CC(=O)CC[C@@]43C)[C@@H]1CC[C@@H]2O [testosterone]
inclusions in cells expressing a pathologically altered androgen receptor [3]: characteristic inclusions in the cytoplasm

CC(C)=CCC/C(C)=C/COC(=O)c1cc(C)c(O)c(C)c1O [A5, (2E)-3,7-dimethylocta-2,6-dien-1-yl-2,4-dihydroxy-3,5-dimethylbenzoate]
antiandrogenic effect of atraric acid derivatives and structurally similar compounds [1]: did not lead to an antiandrogenically active molecule

Cc1cc(O)c(C)c(O)c1C(=O)O [R6, 2,4-dihydroxy-3,6-dimethylbenzoic acid]
antiandrogenic effect of atraric acid derivatives and structurally similar compounds [1]: abrogates the antiandrogenic activity

COC(=O)c1c(C)c(Br)c(O)c(Br)c1O [R1, methyl-3,5-dibromo-2,4-dihydroxy-6-methylbenzoate]
antiandrogenic effect of atraric acid derivatives and structurally similar compounds [1]: loss of anti androgenic activity

COC(=O)c1ccc(O)c(C)c1O [R4, methyl-2,4-dihydroxy-3-methylbenzoate]
inactivation of androgen receptor-mediated transactivation [1]: still able to inactivate | inhibition of androgen receptor-mediated transactivation [1]: nearly completely inhibiting
